Reference: ChEMBL document CHEMBL1201862, “PubChem BioAssay data set” (2004)
The source made the active and inactive calls.

How the values were obtained:
[1] = target: Eukaryotic translation initiation factor 4E (Mus musculus, UniProt P63073); test: eIF4E–eIF4G protein interaction inhibitors, dose response, biochemical, TR-FRET (AID 855); type: functional;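 note: potency for disrupting eIF4E binding to eIF4GI seen as loss of FRET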
[2] = target: T1, Short transient receptor potential channel 4 (Mus musculus, UniProt Q9QUQ5); test: mouse TRPC4 channel inhibitors, dose response, cell-based, HEK293 TRPC4/mu-opioid, Fluo-4 calcium (AID 434942); type: functional;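 note: potency of inhibitors blocking the TRPC4 calcium response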
T1 sequence (Q9QUQ5 whole entry): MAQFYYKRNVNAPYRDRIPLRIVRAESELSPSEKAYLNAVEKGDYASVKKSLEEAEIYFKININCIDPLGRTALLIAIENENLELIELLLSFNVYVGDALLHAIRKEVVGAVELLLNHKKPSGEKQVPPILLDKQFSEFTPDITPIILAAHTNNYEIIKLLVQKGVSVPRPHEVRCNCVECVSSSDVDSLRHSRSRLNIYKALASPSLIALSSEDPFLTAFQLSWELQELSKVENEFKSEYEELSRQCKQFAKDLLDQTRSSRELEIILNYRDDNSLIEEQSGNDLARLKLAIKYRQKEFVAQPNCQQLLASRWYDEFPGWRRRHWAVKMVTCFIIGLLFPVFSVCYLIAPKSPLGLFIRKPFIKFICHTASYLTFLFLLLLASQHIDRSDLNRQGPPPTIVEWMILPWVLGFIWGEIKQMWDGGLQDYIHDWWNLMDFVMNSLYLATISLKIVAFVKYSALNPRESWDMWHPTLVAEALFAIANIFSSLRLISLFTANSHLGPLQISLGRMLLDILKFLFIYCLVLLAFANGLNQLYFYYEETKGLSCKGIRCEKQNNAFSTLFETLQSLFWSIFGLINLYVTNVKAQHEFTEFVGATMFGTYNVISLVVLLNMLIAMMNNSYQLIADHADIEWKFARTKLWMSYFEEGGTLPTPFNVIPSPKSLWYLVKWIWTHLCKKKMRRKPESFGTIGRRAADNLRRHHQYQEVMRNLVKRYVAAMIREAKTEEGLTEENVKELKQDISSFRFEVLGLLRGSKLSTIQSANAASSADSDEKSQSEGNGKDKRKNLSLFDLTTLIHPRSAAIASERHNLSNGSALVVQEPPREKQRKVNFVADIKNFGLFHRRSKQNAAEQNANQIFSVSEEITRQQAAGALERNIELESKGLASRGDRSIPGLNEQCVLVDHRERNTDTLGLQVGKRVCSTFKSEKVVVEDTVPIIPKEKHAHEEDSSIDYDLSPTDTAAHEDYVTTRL

[3] = target: T2, Carboxy-terminal domain RNA polymerase II polypeptide A small phosphatase 1 (Homo sapiens, UniProt Q9GZU7); test: inhibitors of CTDSP1, concentration-response testing, biochemical assay, absorbance-based, actives from ultra-high-throughput screening (AID 540297); type: functional
T2 sequence (Q9GZU7 whole entry): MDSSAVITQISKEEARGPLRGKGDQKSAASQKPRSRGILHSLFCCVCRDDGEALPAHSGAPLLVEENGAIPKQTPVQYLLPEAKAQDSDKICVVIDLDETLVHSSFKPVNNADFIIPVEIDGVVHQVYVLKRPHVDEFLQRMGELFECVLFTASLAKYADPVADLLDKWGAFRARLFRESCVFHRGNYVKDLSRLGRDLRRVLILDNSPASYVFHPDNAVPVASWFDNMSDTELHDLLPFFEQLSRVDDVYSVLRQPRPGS

[4] = target: T3, Voltage-gated N-type calcium channel alpha-1B subunit/Amyloid beta A4 precursor protein-binding family A member 1 (Homo sapiens, UniProt Q00975+Q02410); type: protein assay
[5] = target: T3, Voltage-gated N-type calcium channel alpha-1B subunit/Amyloid beta A4 precursor protein-binding family A member 1; type: protein assay; remark: listed apart in the source
[6] = tested on: HEK293; test: cells; type: functional, cell-based; settings: Homo sapiens
[7] = tested on: HEK293; test: NOD2 signaling inhibitors in MDP-stimulated cells, cell-based, uHTS, luminescence (AID 2001); type: functional; settings: Homo sapiens
[8] = tested on: HEK293; test: cells; type: functional, cell-based; settings: Homo sapiens; remark: listed apart in the source
[9] = tested on: HEK293; test: cells; type: functional, cell-based; settings: Homo sapiens; remark: listed apart in the source
[10] = tested on: HEK293; test: NOD1 signaling inhibitors, primary screen, cell-based, luminescence, uHTS (AID 1578); type: functional; settings: Homo sapiens
[11] = target: Nucleotide-binding oligomerization domain-containing protein 2 (Homo sapiens, UniProt Q9HC29); test: NOD2 signaling inhibitors, cell-based, luminescence, uHTS, HEK293 (AID 1566); type: functional
Nucleotide-binding oligomerization domain-containing protein 2, sequence (Q9HC29 whole entry, the tested form may be a part): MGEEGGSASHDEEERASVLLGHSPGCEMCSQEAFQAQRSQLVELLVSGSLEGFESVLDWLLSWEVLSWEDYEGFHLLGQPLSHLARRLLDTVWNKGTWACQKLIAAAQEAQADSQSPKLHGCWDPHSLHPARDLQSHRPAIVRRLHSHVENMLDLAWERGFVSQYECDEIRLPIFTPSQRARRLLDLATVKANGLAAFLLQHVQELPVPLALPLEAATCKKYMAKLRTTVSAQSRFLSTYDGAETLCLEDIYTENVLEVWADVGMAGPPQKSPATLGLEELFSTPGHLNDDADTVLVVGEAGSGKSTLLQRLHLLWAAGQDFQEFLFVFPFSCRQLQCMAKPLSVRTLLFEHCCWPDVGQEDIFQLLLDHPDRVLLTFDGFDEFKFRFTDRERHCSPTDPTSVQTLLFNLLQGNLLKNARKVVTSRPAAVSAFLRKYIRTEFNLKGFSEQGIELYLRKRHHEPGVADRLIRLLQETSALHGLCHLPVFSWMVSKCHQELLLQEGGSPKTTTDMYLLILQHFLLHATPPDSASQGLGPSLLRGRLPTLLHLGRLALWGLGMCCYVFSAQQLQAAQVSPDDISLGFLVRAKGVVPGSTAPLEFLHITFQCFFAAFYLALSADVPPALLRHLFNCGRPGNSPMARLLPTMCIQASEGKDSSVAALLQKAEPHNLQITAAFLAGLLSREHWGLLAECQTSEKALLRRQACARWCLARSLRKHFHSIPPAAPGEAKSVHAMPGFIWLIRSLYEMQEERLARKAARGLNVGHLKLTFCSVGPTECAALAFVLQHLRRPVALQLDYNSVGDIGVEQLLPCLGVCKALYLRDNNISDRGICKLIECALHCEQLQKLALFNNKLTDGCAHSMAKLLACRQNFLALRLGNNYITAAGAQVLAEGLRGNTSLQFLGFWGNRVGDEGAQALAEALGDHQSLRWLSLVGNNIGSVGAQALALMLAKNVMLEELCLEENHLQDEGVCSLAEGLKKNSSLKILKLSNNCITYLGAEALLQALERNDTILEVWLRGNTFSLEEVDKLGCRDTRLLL

T3 sequence (Q00975 whole entry): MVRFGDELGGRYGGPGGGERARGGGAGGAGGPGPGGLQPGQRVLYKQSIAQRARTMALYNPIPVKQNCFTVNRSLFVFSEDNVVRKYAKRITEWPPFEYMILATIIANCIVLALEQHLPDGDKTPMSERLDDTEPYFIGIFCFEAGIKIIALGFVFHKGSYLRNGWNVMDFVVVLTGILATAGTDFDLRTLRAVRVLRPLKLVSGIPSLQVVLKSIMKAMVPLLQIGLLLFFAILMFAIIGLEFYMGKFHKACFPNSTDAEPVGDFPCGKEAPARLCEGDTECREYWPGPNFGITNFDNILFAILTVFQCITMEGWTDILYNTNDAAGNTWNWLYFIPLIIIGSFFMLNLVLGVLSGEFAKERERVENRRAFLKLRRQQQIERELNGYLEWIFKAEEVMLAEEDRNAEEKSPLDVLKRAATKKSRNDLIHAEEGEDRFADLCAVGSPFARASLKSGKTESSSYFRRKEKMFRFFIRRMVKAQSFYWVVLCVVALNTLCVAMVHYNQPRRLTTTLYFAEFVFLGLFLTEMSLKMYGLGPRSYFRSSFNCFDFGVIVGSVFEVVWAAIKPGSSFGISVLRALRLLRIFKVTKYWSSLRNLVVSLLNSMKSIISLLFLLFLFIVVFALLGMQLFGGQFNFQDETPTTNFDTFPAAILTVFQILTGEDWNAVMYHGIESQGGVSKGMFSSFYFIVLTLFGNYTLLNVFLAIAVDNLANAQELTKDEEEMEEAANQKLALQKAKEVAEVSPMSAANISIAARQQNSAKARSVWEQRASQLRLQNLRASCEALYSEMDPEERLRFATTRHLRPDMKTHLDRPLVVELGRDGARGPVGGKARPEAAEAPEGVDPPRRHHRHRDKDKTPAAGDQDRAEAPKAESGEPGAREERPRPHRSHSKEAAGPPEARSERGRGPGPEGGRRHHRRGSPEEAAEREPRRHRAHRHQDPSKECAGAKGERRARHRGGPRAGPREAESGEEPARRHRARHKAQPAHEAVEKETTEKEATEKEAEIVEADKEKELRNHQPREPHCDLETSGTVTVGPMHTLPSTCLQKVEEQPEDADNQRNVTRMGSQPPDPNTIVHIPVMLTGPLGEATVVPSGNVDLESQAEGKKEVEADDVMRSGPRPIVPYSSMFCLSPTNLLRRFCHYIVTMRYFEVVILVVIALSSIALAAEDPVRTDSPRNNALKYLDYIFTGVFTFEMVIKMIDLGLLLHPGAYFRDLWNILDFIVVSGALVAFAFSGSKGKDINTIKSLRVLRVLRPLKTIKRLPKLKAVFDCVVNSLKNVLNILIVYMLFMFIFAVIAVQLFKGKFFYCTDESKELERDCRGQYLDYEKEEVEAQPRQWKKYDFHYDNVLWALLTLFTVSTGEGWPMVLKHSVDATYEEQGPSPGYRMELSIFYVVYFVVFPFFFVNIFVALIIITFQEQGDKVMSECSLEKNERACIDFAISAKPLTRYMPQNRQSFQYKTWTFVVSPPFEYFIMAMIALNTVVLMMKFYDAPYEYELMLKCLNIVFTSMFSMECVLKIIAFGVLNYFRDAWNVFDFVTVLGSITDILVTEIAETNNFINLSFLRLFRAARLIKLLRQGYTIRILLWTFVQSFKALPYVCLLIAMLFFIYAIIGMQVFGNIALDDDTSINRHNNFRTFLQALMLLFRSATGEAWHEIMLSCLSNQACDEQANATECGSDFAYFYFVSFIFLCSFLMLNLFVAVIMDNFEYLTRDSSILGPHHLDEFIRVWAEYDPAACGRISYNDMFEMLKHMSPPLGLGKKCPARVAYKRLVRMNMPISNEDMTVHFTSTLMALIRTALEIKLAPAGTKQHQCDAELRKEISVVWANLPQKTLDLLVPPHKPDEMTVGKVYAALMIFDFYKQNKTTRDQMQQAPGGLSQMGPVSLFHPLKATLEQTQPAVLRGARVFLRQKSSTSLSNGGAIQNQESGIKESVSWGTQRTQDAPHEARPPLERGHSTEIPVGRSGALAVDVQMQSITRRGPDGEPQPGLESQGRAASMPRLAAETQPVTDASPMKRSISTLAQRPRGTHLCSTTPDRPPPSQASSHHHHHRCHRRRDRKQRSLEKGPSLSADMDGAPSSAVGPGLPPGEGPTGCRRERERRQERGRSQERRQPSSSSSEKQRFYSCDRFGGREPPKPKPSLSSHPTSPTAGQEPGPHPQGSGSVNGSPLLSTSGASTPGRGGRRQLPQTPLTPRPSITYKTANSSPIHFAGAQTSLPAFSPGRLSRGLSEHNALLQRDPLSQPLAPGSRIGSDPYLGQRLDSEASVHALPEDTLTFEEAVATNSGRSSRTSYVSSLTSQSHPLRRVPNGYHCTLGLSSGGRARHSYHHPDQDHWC
T3 sequence (Q02410 whole entry): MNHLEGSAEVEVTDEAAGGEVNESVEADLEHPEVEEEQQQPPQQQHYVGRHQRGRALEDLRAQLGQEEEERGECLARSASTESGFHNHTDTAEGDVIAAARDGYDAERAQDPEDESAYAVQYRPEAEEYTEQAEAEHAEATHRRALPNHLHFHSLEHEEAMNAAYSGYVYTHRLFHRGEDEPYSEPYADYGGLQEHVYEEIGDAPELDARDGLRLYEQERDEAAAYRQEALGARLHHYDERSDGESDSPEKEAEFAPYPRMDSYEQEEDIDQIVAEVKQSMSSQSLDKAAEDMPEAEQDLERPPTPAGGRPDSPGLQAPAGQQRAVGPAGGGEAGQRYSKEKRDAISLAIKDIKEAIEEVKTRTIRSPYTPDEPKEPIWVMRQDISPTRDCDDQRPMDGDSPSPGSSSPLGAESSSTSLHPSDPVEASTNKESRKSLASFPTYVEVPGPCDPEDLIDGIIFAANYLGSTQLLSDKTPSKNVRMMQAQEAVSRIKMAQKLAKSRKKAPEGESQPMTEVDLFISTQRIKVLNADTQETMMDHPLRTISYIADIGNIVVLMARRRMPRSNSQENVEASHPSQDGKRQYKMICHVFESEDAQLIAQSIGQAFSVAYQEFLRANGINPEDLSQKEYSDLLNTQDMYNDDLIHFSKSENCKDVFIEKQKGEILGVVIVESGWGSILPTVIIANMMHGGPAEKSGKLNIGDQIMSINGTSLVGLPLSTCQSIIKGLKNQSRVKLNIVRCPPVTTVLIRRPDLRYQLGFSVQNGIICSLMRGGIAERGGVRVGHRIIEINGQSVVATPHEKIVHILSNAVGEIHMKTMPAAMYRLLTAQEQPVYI
Eukaryotic translation initiation factor 4E, sequence (P63073 whole entry): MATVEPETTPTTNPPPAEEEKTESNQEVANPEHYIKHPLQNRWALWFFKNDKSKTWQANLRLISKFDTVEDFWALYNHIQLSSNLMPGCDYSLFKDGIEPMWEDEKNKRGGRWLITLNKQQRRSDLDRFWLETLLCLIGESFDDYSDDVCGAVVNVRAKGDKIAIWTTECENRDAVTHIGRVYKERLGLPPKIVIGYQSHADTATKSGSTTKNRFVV

For `CCN(CC)S(=O)(=O)c1ccc(NC(=O)c2cc(C(=O)OC)cc([N+](=O)[O-])c2)cc1`, the IC50 [1] was > 64 µM (inactive).

For `O=C(COC(=O)c1cccc([N+](=O)[O-])c1)c1ccc2c(c1)OCO2`, the EC50 [2] was 0.0027 µM (active).

With `CC(C(=O)N1CCCCC1)N1CCN(S(=O)(=O)c2ccc(Cl)cc2)CC1` (configuration not stated) the IC50 [3] was 54.9 µM (active).

For `CCC(=O)N1CCc2cc(S(=O)(=O)NCCN3CCCCC3CC)ccc21` (configuration not stated), the EC50 [2] was 2.66 µM (active).

With `COC(=O)c1ccccc1NC(=O)c1cc(-c2ccco2)on1` the IC50 [4] was 13.7 µM (active) and the IC50 [5] was > 50 µM (inactive).

In the case of `CC(=O)Nc1ccc(NC(=O)c2cc(-c3ccc(C)c(C)c3O)[nH]n2)cc1`, the IC50 [4] is reported as 23.2 µM (active) and the IC50 [5] is reported as > 50 µM (inactive).

In the case of `CC(C)NCC(O)COCCOc1ccc(C(C)(C)C)cc1` (configuration not stated), the EC50 [2] is reported as 1.06 µM (active).

In the case of `O=C(O)c1cc(-c2ccccc2)n(-c2ccccc2C(=O)O)n1`, the IC50 [1] is reported as > 64 µM (inactive).

In the case of `OCC(Cc1ccccc1)NCc1ccccc1C(F)(F)F` (configuration not stated), the EC50 [2] is reported as 8.41 µM (active).

`CCOC(=O)/C=C/C(=O)Nc1ccc(S(=O)(=O)N(C)c2ccccc2)cc1` was tested, and the IC50 [6] was > 20 µM (inactive), the IC50 [7] was 4.98 µM (active) and the IC50 [8] was 16.3 µM (active). For the same compound, the IC50 [9] was 5.26 µM (active), the EC50 [10] was 4.41 µM (active) and the EC50 [11] was > 20 µM (inactive).
